Here are results for 31 molecules from ChEMBL document CHEMBL1129909, “Potent non-peptidic dual inhibitors of endothelin-converting enzyme and neutral endopeptidase 24.11” (Bioorg Med Chem Lett, 1997).

Chain of Neprilysin (P08473 whole entry): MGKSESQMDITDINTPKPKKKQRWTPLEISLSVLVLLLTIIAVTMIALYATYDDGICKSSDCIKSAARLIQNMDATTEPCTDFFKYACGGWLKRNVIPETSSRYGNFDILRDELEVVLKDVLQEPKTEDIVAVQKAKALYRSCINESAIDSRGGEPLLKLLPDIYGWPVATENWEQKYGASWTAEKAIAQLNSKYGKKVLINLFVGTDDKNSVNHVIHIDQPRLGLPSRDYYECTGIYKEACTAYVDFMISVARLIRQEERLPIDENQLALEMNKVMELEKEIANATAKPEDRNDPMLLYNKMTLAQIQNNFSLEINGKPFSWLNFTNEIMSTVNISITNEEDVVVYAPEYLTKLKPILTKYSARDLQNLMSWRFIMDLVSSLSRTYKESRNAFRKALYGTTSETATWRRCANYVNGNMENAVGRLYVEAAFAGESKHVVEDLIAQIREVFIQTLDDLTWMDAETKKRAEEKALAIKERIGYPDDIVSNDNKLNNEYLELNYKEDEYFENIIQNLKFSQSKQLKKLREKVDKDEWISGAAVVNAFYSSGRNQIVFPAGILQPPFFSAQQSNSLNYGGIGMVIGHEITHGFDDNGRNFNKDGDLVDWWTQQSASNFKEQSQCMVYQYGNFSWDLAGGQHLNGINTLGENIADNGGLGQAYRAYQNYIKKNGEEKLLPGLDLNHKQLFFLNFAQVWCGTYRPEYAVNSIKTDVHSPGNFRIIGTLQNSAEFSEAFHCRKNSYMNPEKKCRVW

One test has as its target T1, Endothelin-converting enzyme 1 (Homo sapiens, UniProt P42892).
T1 sequence (P42892 whole entry): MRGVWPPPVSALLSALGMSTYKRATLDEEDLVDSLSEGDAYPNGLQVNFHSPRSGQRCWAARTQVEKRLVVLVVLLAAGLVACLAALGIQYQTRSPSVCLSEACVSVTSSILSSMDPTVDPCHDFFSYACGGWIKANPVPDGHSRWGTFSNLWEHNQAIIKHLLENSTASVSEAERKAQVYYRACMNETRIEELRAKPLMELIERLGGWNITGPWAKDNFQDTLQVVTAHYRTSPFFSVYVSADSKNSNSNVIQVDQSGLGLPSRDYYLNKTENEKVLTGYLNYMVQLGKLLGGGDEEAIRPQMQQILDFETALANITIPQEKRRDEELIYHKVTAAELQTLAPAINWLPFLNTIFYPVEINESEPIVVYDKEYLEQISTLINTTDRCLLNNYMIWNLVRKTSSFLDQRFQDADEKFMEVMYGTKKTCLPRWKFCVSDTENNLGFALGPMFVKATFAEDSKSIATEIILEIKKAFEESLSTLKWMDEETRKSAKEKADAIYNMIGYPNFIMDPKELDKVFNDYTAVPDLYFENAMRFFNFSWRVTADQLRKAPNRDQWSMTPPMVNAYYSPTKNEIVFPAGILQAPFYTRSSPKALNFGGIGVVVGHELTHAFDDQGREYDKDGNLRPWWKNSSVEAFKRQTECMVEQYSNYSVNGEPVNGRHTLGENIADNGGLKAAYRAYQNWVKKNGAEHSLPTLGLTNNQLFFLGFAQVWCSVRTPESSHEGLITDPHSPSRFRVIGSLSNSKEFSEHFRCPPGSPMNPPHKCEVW
Nature of the test: In vitro inhibition against recombinant human Endothelin converting enzyme 1 activity.
Settings: not given
Usually IC50 stands for the midpoint of a concentration-inhibition curve. Regarding `O=P(O)(O)CN[C@@H](Cc1ccc(-c2ccccc2)cc1)c1nnn[nH]1`, the IC50 is 410 nM.
Same read-out and setting: to `O=P(O)(O)C(Cc1cccc2c1OCO2)N[C@H](Cc1ccc(-c2ccccc2)cc1)c1nnn[nH]1` (some centres not stated) belongs 1100 nM.
For `O=P(O)(O)C(N[C@@H](Cc1ccc(-c2ccccc2)cc1)c1nnn[nH]1)c1cccc2ccccc12` (some centres not stated), the IC50 is more than 1000 nM.
On to `O=P(O)(O)C(Cc1ccccc1)N[C@H](Cc1ccc(-c2ccccc2)cc1)c1nnn[nH]1` (some centres not stated), for which the IC50 was found to be 5000 nM.
On to `O=P(O)(O)C(Cc1ccc2ccccc2c1)N[C@@H](Cc1ccc(-c2ccccc2)cc1)c1nnn[nH]1` (some centres not stated) [CGS-314447], for which the IC50 stood at 45 nM.
Regarding `O=P(O)(O)C(Cc1cccc2c1OCO2)N[C@@H](Cc1ccc(-c2ccccc2)cc1)c1nnn[nH]1` (some centres not stated), the IC50 worked out at 110 nM.
`O=C(O)CNC(=O)C(CS)Cc1ccccc1` (configuration not stated) [THIORPHAN]: the IC50 was more than 100000 nM.
The same measure, in the same setting: as for `O=P(O)(O)C(N[C@H](Cc1ccc(-c2ccccc2)cc1)c1nnn[nH]1)c1cccc2ccccc12` (some centres not stated), the figure is more than 1000 nM; as for `O=P(O)(O)C(Cc1ccc2c(c1)OCO2)N[C@@H](Cc1ccc(-c2ccccc2)cc1)c1nnn[nH]1` (some centres not stated), 93 nM.
The same measure, in the same setting: to `O=P(O)(O)C(Cc1cccc2cccnc12)N[C@@H](Cc1ccc(-c2ccccc2)cc1)c1nnn[nH]1` (some centres not stated) belongs 23 nM; to `O=P(O)(O)C(Cc1ccc2c(c1)OCO2)N[C@H](Cc1ccc(-c2ccccc2)cc1)c1nnn[nH]1` (some centres not stated), 390 nM.
In the case of `O=P(O)(O)C(Cc1cccc2cccnc12)N[C@H](Cc1ccc(-c2ccccc2)cc1)c1nnn[nH]1` (some centres not stated), the IC50 was more than 1000 nM.
For the molecule `O=P(O)(O)C(Cc1ccccc1)N[C@@H](Cc1ccc(-c2ccccc2)cc1)c1nnn[nH]1` (some centres not stated), the 50% inhibitory concentration (IC50) was determined as 280 nM.
Still for that read-out and setting: as for `O=P(O)(O)C(Cc1cccc2ccccc12)N[C@@H](Cc1ccc(-c2ccccc2)cc1)c1nnn[nH]1` (some centres not stated), the figure is 17 nM.
With `O=P(O)(O)C(Cc1ccc2ccccc2c1)N[C@H](Cc1ccc(-c2ccccc2)cc1)c1nnn[nH]1` (some centres not stated), the concentration for half-maximal inhibition (IC50) worked out at 1400 nM.
Same read-out and setting: to `O=P(O)(O)C(Cc1cccc2ccccc12)N[C@H](Cc1ccc(-c2ccccc2)cc1)c1nnn[nH]1` (some centres not stated) belongs 160 nM.

For another test, the target named is T2, Endothelin-converting enzyme 1 (Homo sapiens) (UniProt P42892).
T2 sequence (whole entry): T1 sequence (P42892 whole entry)
The test is described as follows: In vitro inhibition to recombinant human endothelin converting enzyme. More on the design: concentration or dose not given beside the values. The conditions noted are these: concentration not given here.
The inhibition is the drop in the measured response relative to a control, in per cent. Consider `O=P(O)(O)C(Cc1cccc2c1OCO2)N[C@H](Cc1ccc(-c2ccccc2)cc1)c1nnn[nH]1` (some centres not stated), for which the inhibition is 50%.
Still for that read-out and setting: to `CC(C)C[C@H](NP(=O)(O)O[C@@H]1O[C@@H](C)[C@H](O)[C@@H](O)[C@H]1O)C(=O)N[C@@H](Cc1c[nH]c2ccccc12)C(=O)O` [PHOSPHORAMIDON] belongs 47%.
The same measure, in the same setting: as for `O=P(O)(CCc1ccc2ccccc2c1)N[C@@H](Cc1ccc(-c2ccccc2)cc1)c1nnn[nH]1`, the figure is 0%; as for `O=P(O)(O)C(N[C@@H](Cc1ccc(-c2ccccc2)cc1)c1nnn[nH]1)c1cccc2ccccc12` (some centres not stated), 14%; as for `O=P(O)(O)C(Cc1ccccc1)N[C@H](Cc1ccc(-c2ccccc2)cc1)c1nnn[nH]1` (some centres not stated), 18%.
With `O=P(O)(O)C(Cc1ccc2ccccc2c1)N[C@@H](Cc1ccc(-c2ccccc2)cc1)c1nnn[nH]1` (some centres not stated) [CGS-314447], the inhibition was found to be 91%.
For the molecule `O=P(O)(O)CN[C@@H](Cc1ccccc1)c1nnn[nH]1`, the inhibition amounted to 0%.
As to `O=P(O)(O)CN[C@@H](Cc1c[nH]c2ccccc12)c1nnn[nH]1`, the inhibition was found to be 10%.
For the molecule `SCC(Cc1ccc(-c2ccccc2)cc1)c1nnn[nH]1` (configuration not stated), the inhibition was 26%.
Same read-out and setting: as for `O=P(O)(O)CCC(Cc1ccc(-c2ccccc2)cc1)c1nnn[nH]1` (configuration not stated), the figure is 0%; as for `O=P(O)(O)CC(Cc1ccc(-c2ccccc2)cc1)c1nnn[nH]1` (configuration not stated), 8%.
For `O=P(O)(O)C(Cc1cccc2c1OCO2)N[C@@H](Cc1ccc(-c2ccccc2)cc1)c1nnn[nH]1` (some centres not stated), the inhibition stood at 87%.
On to `O=C(O)CNC(=O)C(CS)Cc1ccccc1` (configuration not stated) [THIORPHAN], for which the inhibition is 9%.
For `O=P(O)(O)C(N[C@H](Cc1ccc(-c2ccccc2)cc1)c1nnn[nH]1)c1cccc2ccccc12` (some centres not stated), the inhibition was 49%.
On the same count and under the same terms, as for `O=P(O)(O)C(Cc1ccc2c(c1)OCO2)N[C@@H](Cc1ccc(-c2ccccc2)cc1)c1nnn[nH]1` (some centres not stated), the figure is 85%; as for `O=P(O)(O)C(Cc1cccc2cccnc12)N[C@@H](Cc1ccc(-c2ccccc2)cc1)c1nnn[nH]1` (some centres not stated), 93%; as for `O=P(O)(O)CN[C@@H](Cc1ccc2ccccc2c1)c1nnn[nH]1`, 0%.
For `O=P(O)(O)C(Cc1ccc2c(c1)OCO2)N[C@H](Cc1ccc(-c2ccccc2)cc1)c1nnn[nH]1` (some centres not stated), the inhibition came out at 76%.
Consider `O=P(O)(O)C(Cc1cccc2cccnc12)N[C@H](Cc1ccc(-c2ccccc2)cc1)c1nnn[nH]1` (some centres not stated), for which the inhibition came out at 22%.
Turning to `O=C(O)[C@H](Cc1ccc(-c2ccccc2)cc1)NCP(=O)(O)O`, the inhibition was 20%.
Take `O=P(O)(O)CN[C@@H](Cc1ccc(-c2ccccc2)cc1)c1nn[nH]n1`: the inhibition was 79%.
Still for that read-out and setting: as for `O=P(O)(O)C(Cc1ccccc1)N[C@@H](Cc1ccc(-c2ccccc2)cc1)c1nnn[nH]1` (some centres not stated), the figure is 83%; as for `O=P(O)(O)C(Cc1cccc2ccccc12)N[C@@H](Cc1ccc(-c2ccccc2)cc1)c1nnn[nH]1` (some centres not stated), 95%.
In the case of `O=P(O)(O)C(Cc1ccc2ccccc2c1)N[C@H](Cc1ccc(-c2ccccc2)cc1)c1nnn[nH]1` (some centres not stated), the inhibition worked out at 47%.
With `O=P(O)(O)C(Cc1cccc2ccccc12)N[C@H](Cc1ccc(-c2ccccc2)cc1)c1nnn[nH]1` (some centres not stated), the inhibition worked out at 85%.
On the same count and under the same terms, to `O=P(O)(O)CN[C@H](Cc1ccc(-c2ccccc2)cc1)c1nnn[nH]1` belongs 0%; to `O=P(O)(O)CN[C@@H](Cc1ccc(-c2ccccc2)cc1)c1nc[nH]n1`, 0%; to `O=C(O)C[C@H](Cc1ccc(-c2ccccc2)cc1)NCP(=O)(O)O`, 0%.
On to `O=P(O)(O)CN[C@@H](CCc1ccccc1)c1nnn[nH]1`, for which the inhibition was found to be 0%.
Still for that read-out and setting: as for `O=C(O)c1n[nH]c([C@H](Cc2ccc(-c3ccccc3)cc2)NCP(=O)(O)O)n1`, the figure is 14%.

Another test concerns the target Neprilysin (Homo sapiens, UniProt P08473).
Settings: not given
As to `CC(C)C[C@H](NP(=O)(O)O[C@@H]1O[C@@H](C)[C@H](O)[C@@H](O)[C@H]1O)C(=O)N[C@@H](Cc1c[nH]c2ccccc12)C(=O)O` [PHOSPHORAMIDON], the IC50 stood at 30 nM.
